Assay results from US20070184082A1, “Biocompatible polymeric delivery systems for sustained release of quinazolinones” (priority 2004, published 2007).

Key:
[1] = clinical; details: human, in vivo, po, 2 mg
Method: The present interim pharmacokinetic analysis was carried out by ASTER. Patients included were treated for solid tumour. On study Day 1 each patient received one oral dose of halofuginone, either 1 mg (one patient) or 2 mg (6 patients), and blood samples for pharmacokinetics were collected up to 72 hours (3 days) after dosing. Immediately after the collection of the 72 hour blood sample, patients started the multiple dose regimen consisting in morning daily dose administration of 1 mg (for subject No.1) or 2 mg (6 remaining patients) until study Day 15. Urine samples were collected over 48 hours after first dosing. Urine concentrations were only available for patients No.1, No.2, No.3 and No.4, and thus only 4 patients were included in the analysis of urine excretion data.

[2] = test system: healthy male volunteers; assay: Phase I clinical study of safety of oral halofuginone, three dosing regimens; assay type: in vivo, human
Method: The Phase I clinical study described below was conducted in the PPD Development Clinical Pharmacology Unit, 72 Hospital Close, Evington, Leicester, United Kingdom, between September 2001 and October 2001. The objective of this study was to compare the safety and tolerability of halofuginone when a daily dose of 2 mg is administered using three different dosing regimens.
A single-center, open label, three-period, phase I study was performed. Eight subjects attended the PPD Development Clinic for pre-study screening […]. Visits at the Clinic were as follows:
Subjects were admitted to the Clinic on the evening of Day-1. After an overnight fast, subjects received an oral dose of 0.25 mg halofuginone with a standard snack. Each subject received a total of eight doses at 3-hour intervals starting at approximately 10:00 h on Day 1, and remained resident in the Clinic until the morning of Day 3 [after the 24 hour pharmacokinetic (PK) sample]. They returned to the Clinic for an out-patient visit on the morning of Day 4 to provide a PK blood sample. There was a washout of at least 6 days after the last dose in Period 1 before the start of dosing in Period 2.
Subjects were admitted to the Clinic at approximately 07:00 h on Day 1. Subjects were provided with breakfast and then fasted until the first dose. Subjects received an oral dose of 0.5 mg halofuginone with a standard meal at 6-hour intervals starting at approximately 13:00 h (a total of four doses) and remained resident in the Clinic until the morning of Day 3 (after the 24 hour PK sample). They returned to the Clinic for an out-patient visit on the morning of Day 4 to provide a PK blood sample. There was a washout of at least 6 days after the last dose in Period 2 before the start of dosing in Period 3.
Subjects were admitted to the Clinic on the evening of Day-1. After an overnight fast, subjects received a single oral dose of 2 mg halofuginone with breakfast at approximately 07:00 h on Day 1 and remained resident in the Clinic until the morning of Day 2 (after the 24 hour PK sample). They returned to the clinic for an out-patient visit on the morning of Day 3 to provide a PK blood sample.
Adverse events (AEs) were monitored throughout the study period. Vital signs (including blood pressure, pulse rate and oral body temperature), electrocardiogram (ECG), physical examinations and routine laboratory safety analyses were conducted at the pre-study screening and at the post-study follow-up visits.
Eight healthy male Caucasian subjects were enrolled into the study. The mean age was 31.1 years (range 19-39 years), mean height was 176.6 cm (range 169-184 cm), mean weight was 78.9 kg (range 62.7-91.7 kg) and mean BMI was 25.2 kg/m^2 (range 21.9-27.9 kg/m^2). All subjects completed the study.

[3] = test system: humans; assay: Maximum tolerated oral dose of halofuginone in humans; details: oral administration

SMILES: O=C(CC1NCCCC1O)Cn1cnc2cc(Br)c(Cl)cc2c1=O (centres unmarked) [halofuginone, 7-bromo-6-chloro-3-[3-(3-hydroxy-2-piperidinyl)-2-oxopropyl]-4(3H)-quinazolinone]
- half-life [1]: 37.2 h
- tolerability conclusion ([2]; 2 mg given as eight doses of 0.25 mg with a snack or 4 doses of 0.5 mg with a meal): safe and well tolerated
- treatment-emergent AEs considered moderate in severity ([2]; human, in vivo): two
- headache AEs ([2]; male, human, in vivo): 3 AEs
- nausea AEs ([2]; male, human, in vivo): 13 AEs
- time to resolution of all vomiting AEs and most nausea AEs ([2]; male, human, in vivo): 1 h and 0.717 h
- total AEs reported ([2]; male, human, in vivo): 29
- treatment-emergent AEs ([2]; male, human, in vivo): 28
- treatment-emergent AEs considered mild ([2]; male, human, in vivo): 26
- tolerability conclusion ([2]; single dose of 2 mg with a meal): less well tolerated
- maximum tolerated dose with no adverse effects observed [3]: 1 mg/day
